Values quoted from earlier work in patent publication US20150231284A1, “MOLECULAR PROBE FOR IMAGING OF PANCREATIC ISLET AND THE PRECURSOR, AND USE OF THE SAME” (Kyoto University, priority 2009, published 2015).

How the values were obtained:
[1] = system: GLP-1R-positive tumor cells; details: Document 2; cited from earlier work
pancreatic islet cells = details: Document 2; cited from earlier work

Lys^40(Ahx-DTPA-^111In)Exendin-4(9-39)
uptake in the GLP-1R-positive tumor cells [1]: about 7.5% | uptake in pancreatic islets (pancreatic islet cells): about 0.4%
